Test results from PubChem BioAssay (NCI).
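In this assay, cells in 96-well plates receive the compound at five concentrations for 48 hours. Endpoints are linearly interpolated between the surrounding concentrations. GI50 is the concentration that inhibits growth by half. TGI: total growth inhibition.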

Assays:
Assay in all cases: NCI anticancer screen, dose series, 48 h
[1] = system: DU-145 prostate
[2] = system: HCC-2998 colon
[3] = system: HT29 colon
[4] = system: KM12 colon
[5] = system: NCI-H460 lung
[6] = system: RPMI-8226 leukemia
[7] = system: SW-620 colon
[8] = system: SR leukemia
[9] = system: SNB-75 CNS

SMILES	TGI [1] [µM]	TGI [2] [µM]	TGI [3] [µM]	TGI [4] [µM]	TGI [5] [µM]	TGI [6] [µM]	TGI [7] [µM]	TGI [8] [µM]	TGI [9] [µM]	GI50 [1] [µM]	GI50 [2] [µM]	GI50 [3] [µM]	GI50 [4] [µM]	GI50 [6] [µM]	GI50 [9] [µM]	GI50 [7] [µM]	GI50 [5] [µM]
C/C(=N/NC(=S)N1CCCCC1)c1ccccc1O	> 31.6	> 31.6	> 31.6	> 31.6	> 31.6	> 31.6	> 31.6	–	–	–	–	–	–	–	–	–	–
O=S(Nc1ccccc1)c1ccc(N2CCOCC2)cc1 (stereo unspecified)	> 100	> 100	> 100	> 100	> 100	> 100	> 100	> 100	–	–	–	–	–	–	–	–	–
CCOc1ccc(N/C(=C(/C(Cl)=C(/Cl)N(CC)CC)[N+](=O)[O-])n2nnc3ccccc32)cc1	–	> 100	63.8	26.3	> 100	> 100	27.3	–	51.2	–	–	–	–	–	–	–	–
C[C@H](NC(=O)C(Cc1ccccc1)(Cc1ccc(O)cn1)NC(=O)c1ccccc1)c1ccccc1 (stereo partly specified)	35.5	30.8	33.4	49.4	–	> 100	59.3	–	–	–	–	–	–	–	–	–	–
CCOP(=O)(/C=C\n1cc(C)c(=O)[nH]c1=O)OCC	> 100	–	> 100	> 100	> 100	> 100	> 100	–	> 100	–	–	–	–	–	–	–	–
CC(C)CNc1nc2ncnc(N)c2[nH]1	> 100	> 100	> 100	> 100	> 100	> 100	> 100	–	–	–	–	–	–	–	–	–	–
ClCCCc1ccccc1C1=NCCc2ccccc21	> 100	> 100	> 100	> 100	> 100	23.3	> 100	–	> 100	–	–	–	–	–	–	–	–
CCNCCCn1c2c(c3ccc(Cl)cc3c1=O)C(=O)c1cc(OC)cnc1-2	1.56	2.99	2.03	2.26	–	3.65	1.76	–	1.64	0.208	1.28	0.327	0.755	1.25	0.262	0.0316	–
CCCCOC(=O)C(NC(C(=O)OCCCC)c1cc(C(C)(C)C)c(O)c(C(C)(C)C)c1)c1cc(C(C)(C)C)c(O)c(C(C)(C)C)c1 (stereo unspecified)	> 100	–	> 100	> 100	–	> 100	> 100	–	> 100	–	–	–	–	–	–	–	–
C=C[C@@H](C)[C@H](NS(=O)(=O)c1ccc(C)cc1)C(=O)OCC	> 100	–	59.9	> 100	> 100	35.5	> 100	> 100	60.7	–	–	–	–	–	–	–	–
COC(=O)C1CCC(=S)N1C(=O)c1ccccc1 (stereo unspecified)	> 100	> 100	> 100	> 100	> 100	> 100	–	–	> 100	–	–	–	–	–	–	–	–
CCOC(=O)CCC(NC(=O)OCc1ccccc1)C(=O)NC(CCC(=O)OCC)C(=O)NC(CCC(=O)OCC)C(=O)NC(CCC(=O)OCC)C(=O)NC(CCC(=O)OCC)C(=O)NC(CCC(=O)OCC)C(=O)NC(CCC(=O)OCC)C(=O)OCC (stereo unspecified)	> 100	53.8	> 100	–	> 100	> 100	> 100	> 100	> 100	–	–	–	–	–	–	–	–
CC1(C)N/C(=C\C=O)C(C)(C)N1O	> 100	> 100	> 100	> 100	> 100	> 100	> 100	> 100	–	–	–	–	–	–	–	–	–
CCCCCCCC/C=C\CCCCCCC/C=C1\C[C@](/C=C/C(=O)OC)(CO)OC1=O	24.6	13.8	25.8	14.2	20.2	–	3.78	> 23.5	4.59	–	–	–	–	–	–	–	–
OCC(O)C(O)C(O)C(O)c1nc2ccc(Cl)cc2[nH]1 (stereo unspecified)	> 100	> 100	> 100	> 100	> 100	> 100	> 100	–	> 100	–	–	–	–	–	–	–	–
C=C(C(N)=O)c1ccc([N+](=O)[O-])o1	23.4	33.6	30.6	34.8	59	–	32.3	36.9	37.1	–	–	–	–	–	–	–	–
CSCCC(N)C(=O)NCCNc1ccc(NCCNC(=O)C(N)CCSC)c2c1C(=O)c1ccccc1C2=O (stereo unspecified)	5.4	2.33	3.21	12.8	9.33	–	3.83	2.85	3.65	–	–	–	–	–	–	–	–
OC1(c2ccccc2)CCN(Cc2c[nH]c3ccccc23)CC1	> 100	31.6	> 100	> 100	> 100	> 100	> 100	–	> 100	–	–	–	–	–	–	–	–
CC1(C)CC(O)C(C)(C)[C@@H](O)C1 (stereo partly specified)	> 100	> 100	> 100	> 100	> 100	–	> 100	–	> 100	–	–	–	–	–	–	–	–
Nc1ccc(S(=O)(=O)c2ccc(NCN3C(=O)NC(=O)C(=O)C3=O)cc2)cc1	–	> 100	> 100	> 100	> 100	–	> 100	> 100	–	–	–	–	–	–	–	–	–
Cc1cc(C)nc(SC2=C(Nc3ccc(C)c(Cl)c3)C(=O)N(Cc3ccccc3)C2=O)n1	> 160	> 160	> 160	> 160	> 160	–	> 160	–	> 160	> 160	> 160	> 160	> 160	–	> 160	> 160	> 160
Cc1ccc(S(=O)(=O)n2c3ccc(Br)cc3c3nc4ccccc4nc32)cc1	> 100	> 100	> 100	> 100	> 100	> 100	> 100	–	> 100	–	–	–	–	–	–	–	–
CN(C)C(=O)OC1C(=O)N(C)c2ccc(Cl)cc2C2(c3ccccc3)N1C2(Cl)Cl (stereo unspecified)	–	> 100	> 100	> 100	> 100	> 100	> 100	> 100	> 100	–	–	–	–	–	–	–	–
CO/N=C1\CC(NC(=O)CNC(=O)OC(C)(C)C)c2ccsc21 (stereo unspecified)	> 100	> 100	> 100	–	> 100	–	> 100	> 100	> 100	–	–	–	–	–	–	–	–
